pIC50: −log10 of the molar value. The source made the active and inactive calls. The rule behind the calls is not given here.

Common to all, as to type: functional, cell-based
The test system of experiment [1] is HMC1. Put plainly: Antiinflammatory activity in human HMC1 cells assessed as reduction in PMA/ionophore A23187-induced TNFalpha mRNA expression at 0.8 to 20 uM pretreated for 30 mins followed by PMA/ionophore challenge measured after 24 hrs by real-time PCR analysis.
In experiment [2] the test system is HMC1. The experiment in a line: Antiinflammatory activity in human HMC1 cells assessed as reduction in PMA/ionophore A23187-induced IL-6 production.
The test system of experiment [3] is HMC1. The experiment in a line: Antiinflammatory activity in human HMC1 cells assessed as reduction in PMA/ionophore A23187-induced IL-6 mRNA expression at 0.8 to 20 uM pretreated for 30 mins followed by PMA/ionophore challenge measured after 24 hrs by real-time PCR analysis.
Experiment [4] has as its system HMC1. The experiment in a line: Antiinflammatory activity in human HMC1 cells assessed as reduction in PMA/ionophore A23187-induced IL-1beta mRNA expression at 0.8 to 20 uM pretreated for 30 mins followed by PMA/ionophore challenge measured after 24 hrs by real-time PCR analysis.

For the molecule `C/C1=C\C2=C(C[C@H](C)C2=O)[C@@H](O[C@@H]2O[C@H](CO)[C@@H](O)[C@H](O)[C@H]2O)[C@H](C)C[C@@H]2[C@H](C[C@H]1O)[C@@]2(C)CO`, the result with HMC1 [1], with HMC1 [3] and with HMC1 [4] was Active. In the experiment with HMC1 [2], the pIC50 is 5.53.

In the case of `C/C1=C\C2=C(C[C@H](C)C2=O)[C@@H](O)[C@H](C)C[C@@H]2[C@H](C[C@H]1O)[C@@]2(C)CO[C@@H]1O[C@H](CO)[C@@H](O)[C@H](O)[C@H]1O`, the pIC50 in the experiment on HMC1 [2] is 5.71.

The values above are taken from ChEMBL document CHEMBL4219130, “Two new lathyrane-type diterpenoid glycosides with IL-6 production inhibitory activity from the roots of Euphorbia kansui” (Bioorg Med Chem Lett, 2018).
